The values that follow are results of earlier work, collected in US20240199566A1, “CATALYTIC SYNTHESIS OF DELTA-VALEROLACTONE (DVL) FROM FURFURAL-DERIVED 2-HYDROXYTETRAHYDROPYRAN (HTHP)” (Wisconsin Alumni Research Foundation, priority 2022, published 2024).

For the data set the following is noted: stated as a property, no test described.

For the compound `C1=COCCC1` [DHP, 3,4-dihydropyran], the solubility in water is listed as less than 1 wt %.
